According to publication PMC10860144, “Exploring the Dispersion and Electrostatic Components in Arene–Arene Interactions between Ligands and G4 DNA to Develop G4-Ligands” (Journal of Medicinal Chemistry, 2024):
Converted amounts (≈) assume the structure as drawn. “And” between values parts separate entries of the source, which are not always exact repeats. Equal entries are not always repeated.

What was measured:
c-MYC Pu22 G4 DNA = assay: Microscale thermophoresis (MST), c-MYC Pu22 G4 DNA; type: binding, human; conditions: Cy5-labeled c-MYC Pu22 G4 DNA 25 nM; pH 7.4, 100 mM KCl; read-out: apparent Kd (MST)
Experimental: To evaluate the apparent binding affinities (Kd) for the compound series, we next used microscale thermophoresis (MST) with fluorescently labeled c-MYC Pu22 G4 DNA (Table S1). Overall, the measured MST binding results for compounds 2–11 corresponded well with the results from the FRET assay (Figures 2B and S3).
5′-Cy5 labeled G4 DNAs for this study were purchased from Eurofins Genomics. Stock solutions were prepared in water at 100 μM concentration. The sequences used are listed in Supporting Information Table S1. The G4 DNA sequences were folded in KCl buffer (10 mM phosphate, 100 mM KCl, pH 7.4) by heating at 95 °C for 5 min and then cooling to room temperature. All the experiments were performed in 10 mM phosphate pH 7.4, 100 mM KCl, and 0.05% Tween20. The labeled DNA concentration is held constant at 25 nM, and ligand concentration is varied depending on ligands Kd (16 1:3 dilutions). The samples were loaded into standard MST graded glass capillaries and initial fluorescence intensity of the capillary was measured using Monolith NT.115 (Nano Temper, Germany) with 20% LED power. The change in fluorescence with ligand’s concentrations were plotted in Excel and fitted through nonlinear equation to obtain the binding constants. […]
Microscale Thermophoresis (MST)
5'- Cy5 labelled G4 DNAs for this study were purchased from Eurofins Genomics. Stock solutions were prepared in water at […] concentration. The sequences used are listed in supplementary Table S1. The G4 DNA sequences were folded in KCl buffer (10 mM phosphate, 100 mM KCl, pH 7.4) by heating at 95 °C for 5 min and then cooling to room temperature. All the experiments were performed in 10 mM phosphate pH 7.4, 100 mM KCl, 0.05% Tween20. The labelled DNA concentration is held constant at 25 nM and ligand concentration is varied depending on ligands Kd (sixteen 1:3 dilutions). The samples were loaded into standard MST graded glass capillaries and initial fluorescence intensity of the capillary were measured using Monolith NT.115 (Nano Temper, Germany) with 20% LED power. The change in fluorescence with ligand's concentrations were plotted in Excel and fitted through non-linear equation to obtain the binding constants.
(1 picture or pasted object on this page, not shown here)

[1] = tested on: G4 structure on DNA template (PEPu24T); assay: Taq polymerase stop (primer extension) assay, G4 template; type: biochemical; conditions: compound 0.24 μM; compared to DMSO control
Description: To challenge all the synthesized compounds (2–11 and 25–29) in a more intricate context, we conducted a Taq polymerase stop assay to evaluate their capacity to impede DNA synthesis through G4 stabilization. In this assay, we compared the progress of the Taq DNA polymerase along two distinct DNA templates: one with a G4 structure (Figure 5) and another serving as a non-G4 control (Figure S21). If an external species (e.g., G4 ligand) binds and stabilizes the G4 structure, the polymerase will be partially halted. The extent of this DNA polymerase stalling is dependent on the ability of the compound to stabilize the G4 on the DNA template. The increased G4 stabilization can be detected as a reduction in the amount of newly synthesized DNA that has reached the end of the DNA template (full-length/end-product). Analysis of these shorter terminated DNA products will give information about the precise location of the DNA polymerase stalling with a single nucleotide resolution. If the ligand imposes little to no stabilization or binding, the G4 is readily resolved by the DNA polymerase, and no difference in the amount of DNA end-product can therefore be expected upon the addition of the compound.
Templates for the primer extension assay were created by annealing 25 nt TET labeled primer (1 μM final concentration) to either PEPu24T or a mutated sequence not forming a G4, PEPu24T mut, (1.25 μM final concentration) in 100 mM KCl by heating to 95 °C for 5 min and slowly cooling to room temperature. […] Compounds were added in the indicated concentration and incubated on ice for 10 min before starting the reaction by adding dNTPs (100 μM final concentration) to the reaction and transferring it to 37 °C. Reactions were stopped after 15 min by addition of 10 μL of formamide loading buffer (0.5% SDS, 25 mM EDTA, 95% v/v formamide and xylene-cyanol). Samples were then loaded on a 12% polyacrylamide gel containing 7 M urea and 25% formamide and imaged using an Amersham Typhoon. The images were quantified using ImageJ 1.53e software, and the percentage of full-length product compared to a sample without compound was calculated.
Templates for the primer extension assay were created by annealing 25nt TET labelled primer (1 µM final concentration) to either PEPu24T or a mutated sequence not forming a G4, PEPu24T mut, (1.25 µM final concentration) in 100 mM KCl by heating to 95 °C for 5 min and slowly cooling to room temperature. The reaction mixture (10 µl) contained 1X Taq Buffer with KCl (10 mM Tris-HCl pH 8.8, 50 mM KCl, detergent), 25 mM MgCl2, […]
[…] Compounds were added in the indicated concentration and incubated on ice for 10 min before starting the reaction by adding dNTPs (100 µM final concentration) to the reaction and transferring it to 37 °C. Reactions were stopped after 15 min by addition of 10 µl of formamide loading buffer (0,5% SDS, 25 mM EDTA, 95% v/v formamide and xylene-cyanol). Samples were then loaded on a 12% polyacrylamide gel containing 7 M urea and 25% formamide and imaged using an Amersham™ Typhoon™.
The images were quantified using ImageJ 1.53e software and the percentage of full-length product compared to a sample without compound was calculated. […]

logD at pH 7.4 = type: physicochemical
Experimental: (§1) Physicochemical properties
(§2) The Physicochemical profiling (LogD, Solubility, Caco-2 cell permeability) was performed as previously
(§3) described.8 Cell viability was performed as described below.
(§4) Table S2. Pharmacokinetic Properties
(§5) Compound Structure logD, Solubility, Rat hepsa Human mics b

Solubility at pH 7.4 = type: physicochemical
Experimental: as §1, §2, §3, §4, §5

[2] = Intrinsic clearance in rat hepatocytes; type: in vitro ADME
Experimental: (§6) All compounds (2–11, 25–29) were screened for their logD and solubility at pH 7.4 and for their intrinsic clearance in rat hepatocytes and human microsomes (Table S2). […] Replacing the basic amine side chain to a methyl substituent in the quinazolines (25–29) still retained good solubility (134 to over 1000 μM) but increased clearance in both rat hepatocytes and human microsomes. The logD was low for compounds with a basic amine side chain (2–11) and increased slightly when the amine was replaced with a methyl (25–29). As expected, additional substituents also affected the logD with the chloro-substituents increasing logD the most.
(§7) a Intrinsic clearance in rat hepatocytes ((μL/min)/10^6 cells).b Intrinsic clearance in human microsomes (μL/min/mg). […]

[3] = Intrinsic clearance in human microsomes; type: in vitro ADME; conditions: read-out: Human mics: intrinsic clearance in human microsomes
Experimental: as §6, §7

Pu24T c-MYC G4 structure = assay: Kd for binding to the Pu24T c-MYC G4 structure (supplementary CSV); set-up: species or system human
Experimental: 5′-Cy5 labeled G4 DNAs for this study were purchased from Eurofins Genomics. Stock solutions were prepared in water at 100 μM concentration. The sequences used are listed in Supporting Information Table S1. The G4 DNA sequences were folded in KCl buffer (10 mM phosphate, 100 mM KCl, pH 7.4) by heating at 95 °C for 5 min and then cooling to room temperature. All the experiments were performed in 10 mM phosphate pH 7.4, 100 mM KCl, and 0.05% Tween20. The labeled DNA concentration is held constant at 25 nM, and ligand concentration is varied depending on ligands Kd (16 1:3 dilutions). The samples were loaded into standard MST graded glass capillaries and initial fluorescence intensity of the capillary was measured using Monolith NT.115 (Nano Temper, Germany) with 20% LED power. The change in fluorescence with ligand’s concentrations were plotted in Excel and fitted through nonlinear equation to obtain the binding constants.
The Supporting Information is available free of charge at https://pubs.acs.org/doi/10.1021/acs.jmedchem.3c02127. • Experimental procedures and data; assay data, computational results, and all cell data; NMR (^1H and ^13C) spectra for all compounds (with the exception of a few intermediates); and HPLC UV traces for the final compounds (PDF) • Molecular formula strings and Kd values for binding to the Pu24T c-MYC G4 structure (CSV)

| SMILES | Kd (c-MYC Pu22 G4 DNA) | full-length DNA product [1] | logD (logD at pH 7.4) | solubility (Solubility at pH 7.4) [µM] | Rat heps: intrinsic clearance in rat hepatocytes [2] | microsomal CLint [3] [µL/min/mg] | Kd (Pu24T c-MYC G4 structure) [µM] |
| --- | --- | --- | --- | --- | --- | --- | --- |
| Cc1cc(NCCCN(C)C)nc(Nc2nc(C)c3ccccc3n2)n1 [Compound 3, N4-(3-(Dimethylamino)propyl)-6-methyl-N2-(4-methylquinazolin-2-yl)pyrimidine-2,4-diamine] | 0.15 µM | ~45% | 0 | 858 (≈ 302 µg/mL) | 4 (μL/min)/106 cells | < 3 | 0.15 ± 0.01 |
| Cc1ccc2nc(Nc3nc(C)cc(NCCCN(C)C)n3)nc(C)c2c1 [Compound 4, N4-(3-(Dimethylamino)propyl)-N2-(4,6-dimethylquinazolin-2-yl)-6-methylpyrimidine-2,4-diamine] | 0.1 µM | about 30% | 0.4 | > 1000 | < 1 (μL/min)/106 cells | < 3 | 0.1 ± 0.01 |
| COc1ccc2nc(Nc3nc(C)cc(NCCCN(C)C)n3)nc(C)c2c1 [Compound 6, N4-(3-(Dimethylamino)propyl)-N2-(6-methoxy-4-methylquinazolin-2-yl)-6-methylpyrimidine-2,4-diamine] | 0.09 µM | about 30% | 0.1 | > 1000 | < 1 (μL/min)/106 cells | < 3 | 0.09 ± 0.01 |
| Cc1cc(NCCCN(C)C)nc(Nc2nc(C)c3cc(Cl)ccc3n2)n1 [Compound 7, N2-(6-Chloro-4-methylquinazolin-2-yl)-N4-(3-(dimethylamino)propyl)-6-methylpyrimidine-2,4-diamine] | 0.17 µM | about 30% | 0.9 | 990 (≈ 382 µg/mL) | 1 (μL/min)/106 cells | < 3 | 0.17 ± 0.02 |
| Cc1cc(NCCCN(C)C)nc(Nc2nc3ccccc3nc2C)n1 [Compound 9, N4-(3-(Dimethylamino)propyl)-6-methyl-N2-(3-methylquinoxalin-2-yl)pyrimidine-2,4-diamine] | > 10 µM | – | 0.5 | 871 (≈ 306 µg/mL) | 17 (μL/min)/106 cells | < 3 | > 10 |
| Cc1cc(NCCCN(C)C)nc(Nc2nc3cc(C)c(C)cc3nc2C)n1 [Compound 10, N4-(3-(Dimethylamino)propyl)-6-methyl-N2-(3,6,7-trimethylquinoxalin-2-yl)pyrimidine-2,4-diamine] | 2.3 µM and 2.26 µM | – | 1.4 | 838 (≈ 318 µg/mL) | 19 (μL/min)/106 cells | < 3 | 2.3 ± 0.5 |
| Cc1cc(NCCCN(C)C)nc(Nc2nc3cc(Cl)c(Cl)cc3nc2C)n1 [Compound 11, N2-(6,7-Dichloro-3-methylquinoxalin-2-yl)-N4-(3-(dimethylamino)propyl)-6-methylpyrimidine-2,4-diamine] | 3.9 µM and 3.85 µM | – | 2.3 | 646 (≈ 272 µg/mL) | 6 (μL/min)/106 cells | < 3 | 3.9 ± 0.7 |
| Cc1cc(C)nc(Nc2nc(C)c3ccccc3n2)n1 [Compound 25, N-(4,6-Dimethylpyrimidin-2-yl)-4-methylquinazolin-2-amine] | > 15 µM | – | 1.8 | > 1000 | 17 (μL/min)/106 cells | 71 | > 15 |
| Cc1ccc2nc(Nc3nc(C)cc(C)n3)nc(C)c2c1 [Compound 26, N-(4,6-Dimethylpyrimidin-2-yl)-4,6-dimethylquinazolin-2-amine] | 3.3 µM | – | 2.2 | 951 (≈ 266 µg/mL) | 20 (μL/min)/106 cells | 84 | 3.3 ± 0.3 |
| COc1ccc2nc(Nc3nc(C)cc(C)n3)nc(C)c2c1 [Compound 28, N-(4,6-Dimethylpyrimidin-2-yl)-6-methoxy-4-methylquinazolin-2-amine] | 3.6 µM | – | 1.9 | 271 (≈ 80 µg/mL) | 34 (μL/min)/106 cells | 22 | 3.6 ± 0.7 |
| Cc1cc(C)nc(Nc2nc(C)c3cc(Cl)ccc3n2)n1 [Compound 29, 6-Chloro-N-(4,6-dimethylpyrimidin-2-yl)-4-methylquinazolin-2-amine] | > 15 µM | – | 2.4 | 134 (≈ 40.2 µg/mL) | 9 (μL/min)/106 cells | 56 | > 15 |
